Source: article PMC8309759, “A Dual-Sensor-Based Screening System for In Vitro Selection of TDP1 Inhibitors” (Sensors (Basel, Switzerland), 2021)
Like-named read-outs stand apart in the source and are kept apart here.

What was measured:
topoisomerase 1 (TOP1) = molecular target: T1, topoisomerase 1 (TOP1) (Homo sapiens, UniProt P11387); experiment: REEAD cleavage-ligation assay with purified TOP1, […] CPT; assay type: biochemical
T1 sequence (P11387 2-765): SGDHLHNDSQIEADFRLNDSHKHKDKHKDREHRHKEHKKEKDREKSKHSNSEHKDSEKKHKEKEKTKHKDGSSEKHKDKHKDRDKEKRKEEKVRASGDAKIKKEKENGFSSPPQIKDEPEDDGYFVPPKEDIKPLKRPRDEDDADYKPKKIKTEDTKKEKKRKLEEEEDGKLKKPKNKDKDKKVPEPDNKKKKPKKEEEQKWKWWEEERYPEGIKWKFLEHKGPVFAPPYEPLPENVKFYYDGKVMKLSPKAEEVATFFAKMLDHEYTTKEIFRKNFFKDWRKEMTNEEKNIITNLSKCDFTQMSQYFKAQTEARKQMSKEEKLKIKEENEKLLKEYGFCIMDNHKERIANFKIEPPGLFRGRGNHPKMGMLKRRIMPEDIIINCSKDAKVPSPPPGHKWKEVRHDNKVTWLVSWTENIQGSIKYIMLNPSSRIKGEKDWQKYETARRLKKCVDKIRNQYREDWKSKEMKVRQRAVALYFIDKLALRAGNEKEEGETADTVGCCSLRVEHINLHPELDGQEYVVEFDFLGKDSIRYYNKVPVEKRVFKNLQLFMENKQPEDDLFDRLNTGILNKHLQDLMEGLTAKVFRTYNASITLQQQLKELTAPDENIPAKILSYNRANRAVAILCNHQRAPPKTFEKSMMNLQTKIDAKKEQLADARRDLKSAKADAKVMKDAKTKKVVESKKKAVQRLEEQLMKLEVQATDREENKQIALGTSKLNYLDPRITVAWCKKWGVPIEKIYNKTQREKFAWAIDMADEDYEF

[1] = molecular target: tyrosyl-DNA phosphodiesterase 1 (TDP1) (Homo sapiens, UniProt Q9NUW8); experiment: fluorescent hairpin DNA sensor (ATTO488/BHQ1) assay with purified human TDP1, 13-point dose response; assay type: biochemical
Chain of tyrosyl-DNA phosphodiesterase 1 (TDP1) (Q9NUW8 whole entry): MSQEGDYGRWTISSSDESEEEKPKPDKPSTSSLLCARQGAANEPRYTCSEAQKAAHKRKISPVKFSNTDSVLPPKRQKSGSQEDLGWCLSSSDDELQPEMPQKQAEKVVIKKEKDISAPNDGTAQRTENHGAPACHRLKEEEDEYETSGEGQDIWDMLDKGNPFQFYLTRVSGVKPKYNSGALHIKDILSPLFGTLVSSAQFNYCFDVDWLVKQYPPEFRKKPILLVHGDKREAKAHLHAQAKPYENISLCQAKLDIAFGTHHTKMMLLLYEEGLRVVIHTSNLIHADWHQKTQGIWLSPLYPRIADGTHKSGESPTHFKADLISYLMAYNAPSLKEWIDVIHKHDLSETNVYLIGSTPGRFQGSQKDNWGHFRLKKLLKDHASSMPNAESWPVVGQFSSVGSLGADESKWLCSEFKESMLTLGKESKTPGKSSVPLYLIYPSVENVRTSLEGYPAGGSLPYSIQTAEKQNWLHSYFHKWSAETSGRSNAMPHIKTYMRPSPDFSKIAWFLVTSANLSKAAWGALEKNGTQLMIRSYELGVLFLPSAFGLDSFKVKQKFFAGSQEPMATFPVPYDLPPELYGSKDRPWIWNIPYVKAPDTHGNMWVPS

SMILES	IC50 [1]	other results
CC[C@@]1(O)C(=O)OCc2c1cc1n(c2=O)Cc2cc3ccccc3nc2-1 [CPT, camptothecin]	–	REEAD cleavage-ligation assay with purified TOP1, 80 μM CPT (topoisomerase 1 (TOP1)): CPT control is a positive control for TOP1 inhibition.
FC(F)(F)c1ccc(C2CC(c3ccccc3)c3cccc(P(=S)(c4ccccc4)c4ccccc4)c3N2)cc1 (stereo not shown) [PSTHQ-2]	4.28 µM	–
COc1ccc(-c2cc(-c3ccc([N+](=O)[O-])cc3)nc3cccnc23)cc1 [NAF-15]	–	IC50 ([1]; read-out: IC50): 37.8 µM
O=[N+]([O-])c1ccc(C2CC(c3ccccc3)c3cccc(P(=S)(c4ccccc4)c4ccccc4)c3N2)cc1 (stereo not shown) [PSTHQ-13]	13.1 µM	–
